From the NIST ThermoML archive (doi:10.1021/acs.jced.8b00067)
Where “and” joins values, the source holds several entries; their conditions need not be identical. Equal values may be shown once.

How the values were obtained:
[1] = 101.3 kPa, Liquid, Vibrating tube method
[2] = xn = mol fraction of the nth substance listed; details: 101.3 kPa, Liquid, Vibrating tube method

ClCCCl [1,2-dichloroethane]
[1]
Details | mass density
288.15 K | 1260.35 kg/m3
298.15 K | 1245.75 kg/m3 and 1245.76 kg/m3
308.15 K | 1231.16 kg/m3
318.15 K | 1216.56 kg/m3

ClCCCl [1,2-dichloroethane] + C1COCCO1
mass density [kg/m3], [2]
Details | 288.15 K | 298.15 K | 308.15 K | 318.15 K
x2 = 0 | 1260.35 | 1245.75 | 1231.16 | 1216.56
x2 = 0.05 | 1247.73 | 1233.53 | 1219.2 | 1204.74
x2 = 0.15 | 1223.15 | 1209.44 | 1195.6 | 1181.63
x2 = 0.25 | 1199.18 | 1185.91 | 1172.52 | 1159.01
x2 = 0.35 | 1175.98 | 1163.09 | 1150.11 | 1137.01
x2 = 0.45 | 1153.2 | 1140.69 | 1128.08 | 1115.36
x2 = 0.5 | 1142.13 | 1129.79 | 1117.34 | 1104.79
x2 = 0.55 | 1131.22 | 1119.02 | 1106.74 | 1094.34
x2 = 0.65 | 1109.63 | 1097.72 | 1085.72 | 1073.62
x2 = 0.75 | 1088.81 | 1077.13 | 1065.38 | 1053.55
x2 = 0.85 | 1068.59 | 1057.12 | 1045.59 | 1033.98
x2 = 0.95 | 1048.8 | 1037.49 | 1026.13 | 1014.72

ClCCCl [1,2-dichloroethane] + CC(C)O
mass density [kg/m3], [2]
Details | 288.15 K | 298.15 K | 308.15 K | 318.15 K
x2 = 0 | 1260.35 | 1245.75 | 1231.16 | 1216.56
x2 = 0.05 | 1235.77 | 1221.42 | 1206.94 | 1192.32
x2 = 0.15 | 1188.35 | 1174.26 | 1160 | 1145.58
x2 = 0.25 | 1141.45 | 1127.77 | 1113.89 | 1099.81
x2 = 0.35 | 1094.84 | 1081.66 | 1068.25 | 1054.61
x2 = 0.45 | 1048.69 | 1036.08 | 1023.22 | 1010.09
x2 = 0.5 | 1025.43 | 1013.12 | 1000.56 | 987.72
x2 = 0.55 | 1001.94 | 989.96 | 977.71 | 965.17
x2 = 0.65 | 955.61 | 944.31 | 932.73 | 920.85
x2 = 0.75 | 908.94 | 898.38 | 887.54 | 876.36
x2 = 0.849 | 862.18 | 852.45 | 842.41 | 832.03
x2 = 0.949 | 814.66 | 805.84 | 796.72 | 787.26
x2 = 0.95 | 814.18 | 805.36 | 796.25 | 786.79

ClCCCl [1,2-dichloroethane] + CCCO
mass density, [2]
Details | 288.15 K | 298.15 K | 308.15 K | 318.15 K
x2 = 0 | 1260.35 kg/m3 | 1245.75 kg/m3 | 1231.16 kg/m3 | 1216.56 kg/m3
x2 = 0.026 | 1248.39 kg/m3 | 1234.01 kg/m3 | 1219.5 kg/m3 | 1204.86 kg/m3
x2 = 0.05 | 1237.53 kg/m3 and 1237.37 kg/m3 | 1223.22 kg/m3 and 1223.08 kg/m3 | 1208.79 kg/m3 and 1208.64 kg/m3 | 1194.22 kg/m3 and 1194.08 kg/m3
x2 = 0.1 | 1215.38 kg/m3 | 1201.26 kg/m3 | 1187.01 kg/m3 | 1172.6 kg/m3
x2 = 0.122 | 1205.69 kg/m3 | 1191.67 kg/m3 | 1177.5 kg/m3 | 1163.18 kg/m3
x2 = 0.149 | 1193.33 kg/m3 | 1179.47 kg/m3 | 1165.44 kg/m3 | 1151.24 kg/m3
x2 = 0.25 | 1149.08 kg/m3 | 1135.78 kg/m3 | 1122.28 kg/m3 | 1108.59 kg/m3
x2 = 0.35 | 1104.87 kg/m3 | 1092.18 kg/m3 | 1079.29 kg/m3 | 1066.19 kg/m3
x2 = 0.45 | 1060.3 kg/m3 | 1048.27 kg/m3 | 1036.04 kg/m3 | 1023.57 kg/m3
x2 = 0.55 | 1015.43 kg/m3 | 1004.09 kg/m3 | 992.55 kg/m3 | 980.78 kg/m3
x2 = 0.645 | 972.3 kg/m3 | 961.66 kg/m3 | 950.81 kg/m3 | 939.73 kg/m3
x2 = 0.75 | 924.58 kg/m3 | 914.71 kg/m3 | 904.65 kg/m3 | 894.38 kg/m3
x2 = 0.85 | 878.59 kg/m3 | 869.49 kg/m3 | 860.21 kg/m3 | 850.73 kg/m3
x2 = 0.899 | 855.66 kg/m3 | 846.93 kg/m3 | 838.05 kg/m3 | 828.97 kg/m3
x2 = 0.95 | 831.69 kg/m3 | 823.36 kg/m3 | 814.89 kg/m3 | 806.24 kg/m3
x2 = 0.974 | 820.39 kg/m3 | 812.24 kg/m3 | 803.95 kg/m3 | 795.49 kg/m3
x2 = 0.975 | 819.73 kg/m3 | 811.6 kg/m3 | 803.33 kg/m3 | 794.89 kg/m3
